Patent US6841570B2, “Materials and methods for controlling wood-boring insects” (priority 2002, dated 2005)
“Also recorded” adds a separate entry of the source.

Key:
Reticultiermes flavipes [1] = experiment: Repellency tests, half-treated filter paper in petri dishes; assay type: in vivo; conditions: 0.0535% nepetalactone on half of the filter paper; six ten minute intervals
Protocol: Materials: Reticultiermes flavipes, from the family Rhinotermitidae, the most common subterranean termites, were collected for toxicity tests, nepetalactone was obtained by commercial purchase (Kooky Kat Catnip Co., B.C.). For repellency assays, a donated amount of nepetalactone was provided from Iowa State University, courtesy of Dr. Joel Coates. Bioassays: Acetone was used as solvent for nepetalactone and control (permethrin). Absorbent (Fisherbrand) coarse, filter paper was treated with nepetalactone and controls and placed in standard, sterile polystyrene 100×15 mm petri dishes. Reticultierme flavipes (20 per replication) were placed in petri dishes and location monitored at 6 ten minute intervals. Repellency tests: Eight trials each of 0.0535% nepetalactone, 0.1% permethrin, blank, and pure acetone solvent were ran to test repellency. Filter papers were cut in half with solvent on one half and treated side on the opposite half. […] Termites were measured on treated and untreated sides at six consecutive ten minute intervals. Percent repellency was calculated as follows: (# live termites−# live termites treated)/total #termites. Standard mean of the Error (SEM): SEM=(variance)^1/2[…].

Reticultiermes flavipes [2] = experiment: Toxicity tests of nepetalactone on treated filter paper in petri dishes; assay type: in vivo; conditions: filter paper treated with acetone solutions; strengths 5.35%, 0.535%, 0.0535%, 0.000004%
Protocol: Materials: Reticultiermes flavipes, from the family Rhinotermitidae, the most common subterranean termites, were collected for toxicity tests, nepetalactone was obtained by commercial purchase (Kooky Kat Catnip Co., B.C.). For repellency assays, a donated amount of nepetalactone was provided from Iowa State University, courtesy of Dr. Joel Coates. Bioassays: Acetone was used as solvent for nepetalactone and control (permethrin). Absorbent (Fisherbrand) coarse, filter paper was treated with nepetalactone and controls and placed in standard, sterile polystyrene 100×15 mm petri dishes. Reticultierme flavipes (20 per replication) were placed in petri dishes and location monitored at 6 ten minute intervals. Toxicity tests: Toxicity tests of nepetalactone were conducted to determine non-lethal percentage for repellency assays. Permethrin (0.1%) solutions served as known control. Four strengths of nepetalactone were measured: 5.35%, 0.535%, 0.0535%, and 0.000004%. Based on the evident mortality, 0.0535% nepetalactone was selected as the repellency test solution.

CC1=COC(=O)C2C(C)CCC12 (centres unmarked) [nepetalactone, 5,6,7,7a-tetrahydro-4,7-dimethyl cyclopenta[c]pyran-1-(4aH)-one]
repellant effect on termites (Reticultiermes flavipes [1]): dramatic repellant effect; also recorded: clear repellant | toxic effect (mortality) to termites (Reticultiermes flavipes [2]): lethal to termites; also recorded: toxic effects
